Experimental data as given in paper PMC10382584, “Macrocyclization of linear molecules by deep learning to facilitate macrocyclic drug candidates discovery” (Nature Communications, 2023).

Experiments:
Test in all cases: biochemical
Set-up in all cases: DiscoveRx KINOMEscan competition binding, percent of DMSO control signal at 100 nM
Settings in all cases: read-out: Fig. 4a / Percent Control / Compound 1; percent of DMSO control, competition binding
RET = RET (Homo sapiens, UniProt P07949)
MAPKAPK5 = MAPKAPK5 (Homo sapiens, UniProt Q8IW41)
VPS34 = target: T1, VPS34 (Homo sapiens, UniProt Q8NEB9)
T1 construct: gene PIK3C3
T1 sequence (Q8NEB9 whole entry): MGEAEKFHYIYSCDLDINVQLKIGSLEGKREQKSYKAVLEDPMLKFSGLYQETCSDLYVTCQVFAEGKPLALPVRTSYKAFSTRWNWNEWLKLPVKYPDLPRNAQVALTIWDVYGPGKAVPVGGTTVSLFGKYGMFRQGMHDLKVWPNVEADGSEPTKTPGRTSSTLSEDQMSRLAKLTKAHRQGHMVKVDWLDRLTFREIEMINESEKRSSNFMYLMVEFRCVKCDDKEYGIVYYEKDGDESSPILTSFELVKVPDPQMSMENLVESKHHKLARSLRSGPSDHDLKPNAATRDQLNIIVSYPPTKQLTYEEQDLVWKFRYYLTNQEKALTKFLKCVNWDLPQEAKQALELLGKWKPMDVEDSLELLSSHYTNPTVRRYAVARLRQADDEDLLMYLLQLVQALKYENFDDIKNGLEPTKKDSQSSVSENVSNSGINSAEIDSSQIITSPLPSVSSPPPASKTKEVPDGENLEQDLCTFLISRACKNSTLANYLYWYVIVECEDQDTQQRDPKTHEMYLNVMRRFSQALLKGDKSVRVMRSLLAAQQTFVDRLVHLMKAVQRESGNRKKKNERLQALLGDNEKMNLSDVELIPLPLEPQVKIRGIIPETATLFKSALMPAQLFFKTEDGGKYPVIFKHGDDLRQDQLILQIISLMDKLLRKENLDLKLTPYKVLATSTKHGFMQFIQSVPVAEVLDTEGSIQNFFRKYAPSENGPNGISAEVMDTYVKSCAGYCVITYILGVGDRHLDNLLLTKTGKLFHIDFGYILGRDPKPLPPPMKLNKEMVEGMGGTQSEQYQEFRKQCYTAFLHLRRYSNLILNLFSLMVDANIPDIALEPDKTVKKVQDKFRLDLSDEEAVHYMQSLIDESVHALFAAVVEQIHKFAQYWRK

ROS1 = ROS1 (Homo sapiens, UniProt P08922)
LCK = LCK (Homo sapiens, UniProt P06239)
[1] = target: T2, RPS6KA4(Kin.Dom.1-N-terminal) (Homo sapiens, UniProt O75676)
T2 construct: Kin.Dom.1-N-terminal
T2 sequence (O75676 whole entry): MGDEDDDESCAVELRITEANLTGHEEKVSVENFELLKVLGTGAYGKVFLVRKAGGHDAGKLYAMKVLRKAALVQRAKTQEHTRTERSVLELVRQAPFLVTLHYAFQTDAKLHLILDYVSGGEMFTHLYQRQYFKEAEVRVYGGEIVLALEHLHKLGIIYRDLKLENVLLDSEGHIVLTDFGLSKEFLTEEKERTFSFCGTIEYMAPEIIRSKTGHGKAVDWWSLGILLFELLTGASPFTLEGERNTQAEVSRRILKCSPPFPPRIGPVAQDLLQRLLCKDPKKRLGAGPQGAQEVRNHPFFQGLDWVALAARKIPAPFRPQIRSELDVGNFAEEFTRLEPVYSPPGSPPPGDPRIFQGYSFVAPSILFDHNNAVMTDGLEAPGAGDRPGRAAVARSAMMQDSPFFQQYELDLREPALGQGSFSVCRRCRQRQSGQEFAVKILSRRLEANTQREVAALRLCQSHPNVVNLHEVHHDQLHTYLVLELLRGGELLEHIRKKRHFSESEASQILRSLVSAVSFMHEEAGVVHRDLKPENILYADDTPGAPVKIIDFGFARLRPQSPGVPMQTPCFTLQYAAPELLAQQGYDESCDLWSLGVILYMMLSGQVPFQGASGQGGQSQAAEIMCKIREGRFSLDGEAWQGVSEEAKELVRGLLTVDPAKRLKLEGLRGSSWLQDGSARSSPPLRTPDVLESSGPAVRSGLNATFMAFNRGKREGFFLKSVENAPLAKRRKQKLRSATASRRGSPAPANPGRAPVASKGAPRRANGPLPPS

PIK3CG = PIK3CG (Homo sapiens, UniProt P48736)
Sequence of PIK3CG (P48736 whole entry): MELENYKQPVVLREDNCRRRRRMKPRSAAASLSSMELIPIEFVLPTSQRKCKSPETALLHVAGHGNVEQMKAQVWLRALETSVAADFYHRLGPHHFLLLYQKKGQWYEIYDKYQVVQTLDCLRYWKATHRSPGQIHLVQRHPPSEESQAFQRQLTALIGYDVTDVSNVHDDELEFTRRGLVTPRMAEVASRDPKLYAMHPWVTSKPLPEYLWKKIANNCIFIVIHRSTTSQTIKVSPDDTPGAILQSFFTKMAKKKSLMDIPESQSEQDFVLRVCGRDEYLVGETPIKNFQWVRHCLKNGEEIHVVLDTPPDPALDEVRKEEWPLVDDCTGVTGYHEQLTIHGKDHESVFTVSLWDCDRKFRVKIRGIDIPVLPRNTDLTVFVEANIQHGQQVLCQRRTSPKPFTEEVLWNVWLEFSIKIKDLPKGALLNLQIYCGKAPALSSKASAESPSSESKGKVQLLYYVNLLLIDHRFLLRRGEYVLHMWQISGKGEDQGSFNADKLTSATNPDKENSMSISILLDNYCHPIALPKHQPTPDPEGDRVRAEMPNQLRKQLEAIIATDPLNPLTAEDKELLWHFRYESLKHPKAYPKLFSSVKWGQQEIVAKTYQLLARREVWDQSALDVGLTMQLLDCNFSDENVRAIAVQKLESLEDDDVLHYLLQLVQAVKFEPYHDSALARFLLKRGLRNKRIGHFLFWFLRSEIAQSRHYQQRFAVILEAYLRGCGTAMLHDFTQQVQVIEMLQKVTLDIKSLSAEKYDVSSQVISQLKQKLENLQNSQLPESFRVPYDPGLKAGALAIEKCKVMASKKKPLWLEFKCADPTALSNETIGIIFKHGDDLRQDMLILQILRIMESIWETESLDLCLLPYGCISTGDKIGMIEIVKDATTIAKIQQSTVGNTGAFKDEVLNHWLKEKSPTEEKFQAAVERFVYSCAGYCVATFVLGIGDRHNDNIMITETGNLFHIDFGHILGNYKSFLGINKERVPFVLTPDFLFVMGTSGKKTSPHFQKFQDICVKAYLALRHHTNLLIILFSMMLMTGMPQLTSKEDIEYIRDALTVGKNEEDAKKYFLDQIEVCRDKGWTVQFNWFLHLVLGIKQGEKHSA

PIK3CD = PIK3CD (Homo sapiens, UniProt O00329)
Sequence of PIK3CD (O00329 whole entry): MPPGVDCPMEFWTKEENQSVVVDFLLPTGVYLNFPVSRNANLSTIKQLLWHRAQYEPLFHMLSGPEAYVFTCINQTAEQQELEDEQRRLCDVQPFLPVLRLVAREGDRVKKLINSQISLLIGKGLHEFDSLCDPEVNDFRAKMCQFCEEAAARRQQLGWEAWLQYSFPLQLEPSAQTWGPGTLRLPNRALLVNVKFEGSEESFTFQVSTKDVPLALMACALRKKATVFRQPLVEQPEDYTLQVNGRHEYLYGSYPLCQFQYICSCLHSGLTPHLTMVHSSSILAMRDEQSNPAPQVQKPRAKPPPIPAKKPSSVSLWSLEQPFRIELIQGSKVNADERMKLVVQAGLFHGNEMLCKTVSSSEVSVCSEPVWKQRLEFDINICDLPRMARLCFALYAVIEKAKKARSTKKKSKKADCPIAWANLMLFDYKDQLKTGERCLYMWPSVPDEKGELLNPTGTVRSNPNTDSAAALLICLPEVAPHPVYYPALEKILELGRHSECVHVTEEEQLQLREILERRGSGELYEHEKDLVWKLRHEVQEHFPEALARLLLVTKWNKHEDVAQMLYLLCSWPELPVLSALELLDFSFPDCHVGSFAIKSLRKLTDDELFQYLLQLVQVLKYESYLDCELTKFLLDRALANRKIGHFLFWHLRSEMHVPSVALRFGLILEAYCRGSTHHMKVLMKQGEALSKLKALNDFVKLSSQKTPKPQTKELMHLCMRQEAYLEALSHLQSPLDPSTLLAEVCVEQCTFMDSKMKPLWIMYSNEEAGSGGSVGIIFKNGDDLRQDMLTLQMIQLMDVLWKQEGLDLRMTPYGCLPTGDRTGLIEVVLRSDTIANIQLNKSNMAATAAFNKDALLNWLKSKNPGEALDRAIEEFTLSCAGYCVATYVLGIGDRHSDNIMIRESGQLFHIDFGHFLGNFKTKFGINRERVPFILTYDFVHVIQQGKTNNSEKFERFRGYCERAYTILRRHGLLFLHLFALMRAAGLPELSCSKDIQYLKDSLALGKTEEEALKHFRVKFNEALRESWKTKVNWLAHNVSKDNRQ

CSNK1E = CSNK1E (Homo sapiens, UniProt P49674)
FLT3(N841I) = FLT3(N841I) (Homo sapiens, UniProt P36888, N841I)
PLK1 = PLK1 (Homo sapiens, UniProt P53350)
MERTK = MERTK (Homo sapiens, UniProt Q12866)
PIKFYVE = PIKFYVE (Homo sapiens, UniProt Q9Y2I7)
DAPK3 = DAPK3 (Homo sapiens, UniProt O43293)
TRKB = target: T3, TRKB (Homo sapiens, UniProt Q16620)
T3 construct: gene NTRK2

ZAK = target: T4, ZAK (Homo sapiens, UniProt Q9NYL2)
T4 construct: gene MAP3K20

RIOK2 = RIOK2 (Homo sapiens, UniProt Q9BVS4)
TAK1 = target: T5, TAK1 (Homo sapiens, UniProt O43318)
T5 construct: gene MAP3K7

NEK4 = NEK4 (Homo sapiens, UniProt P51957)
INSRR = INSRR (Homo sapiens, UniProt P14616)
Sequence of INSRR (P14616 whole entry): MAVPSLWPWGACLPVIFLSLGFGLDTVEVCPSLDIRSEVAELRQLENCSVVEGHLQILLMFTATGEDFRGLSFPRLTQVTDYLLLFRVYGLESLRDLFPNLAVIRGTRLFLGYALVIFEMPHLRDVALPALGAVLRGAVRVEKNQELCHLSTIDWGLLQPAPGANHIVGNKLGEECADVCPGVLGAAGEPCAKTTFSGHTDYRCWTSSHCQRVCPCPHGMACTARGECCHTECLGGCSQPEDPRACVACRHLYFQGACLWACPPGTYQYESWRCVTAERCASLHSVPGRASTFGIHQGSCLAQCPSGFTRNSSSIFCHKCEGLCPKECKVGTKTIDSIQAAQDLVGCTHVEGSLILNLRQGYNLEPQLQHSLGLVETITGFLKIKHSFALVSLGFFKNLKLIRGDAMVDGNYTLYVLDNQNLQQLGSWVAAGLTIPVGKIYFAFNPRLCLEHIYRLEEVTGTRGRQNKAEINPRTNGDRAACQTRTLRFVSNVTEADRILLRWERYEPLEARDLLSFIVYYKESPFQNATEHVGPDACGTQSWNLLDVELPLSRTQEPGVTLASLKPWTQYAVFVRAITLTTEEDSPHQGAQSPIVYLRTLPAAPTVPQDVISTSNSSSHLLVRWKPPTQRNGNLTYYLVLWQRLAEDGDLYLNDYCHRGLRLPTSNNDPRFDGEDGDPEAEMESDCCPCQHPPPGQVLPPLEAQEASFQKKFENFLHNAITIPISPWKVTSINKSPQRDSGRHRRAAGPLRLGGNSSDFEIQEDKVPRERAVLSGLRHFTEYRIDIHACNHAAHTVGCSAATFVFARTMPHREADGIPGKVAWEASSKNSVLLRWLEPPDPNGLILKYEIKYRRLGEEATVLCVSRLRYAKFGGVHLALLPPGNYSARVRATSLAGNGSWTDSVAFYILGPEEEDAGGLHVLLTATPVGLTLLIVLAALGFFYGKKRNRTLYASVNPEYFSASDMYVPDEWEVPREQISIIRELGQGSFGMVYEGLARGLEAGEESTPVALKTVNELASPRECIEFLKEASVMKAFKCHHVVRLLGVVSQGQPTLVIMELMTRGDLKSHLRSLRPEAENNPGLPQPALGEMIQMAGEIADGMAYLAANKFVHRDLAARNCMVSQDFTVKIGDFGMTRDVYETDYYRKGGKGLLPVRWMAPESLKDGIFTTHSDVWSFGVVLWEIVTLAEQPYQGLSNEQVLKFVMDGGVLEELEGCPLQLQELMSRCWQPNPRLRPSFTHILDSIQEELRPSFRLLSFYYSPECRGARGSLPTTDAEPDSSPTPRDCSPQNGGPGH

MYLK = MYLK (Homo sapiens, UniProt Q15746)
TNK2 = TNK2 (Homo sapiens, UniProt Q07912)
FLT3(K663Q) = FLT3(K663Q) (Homo sapiens, UniProt P36888, K663Q)
p38-delta = target: T6, p38-delta (Homo sapiens, UniProt O15264)
T6 construct: gene MAPK13

KIT(D816V) = KIT(D816V) (Homo sapiens, UniProt P10721, D816V)
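Note: KINOMEscan kinase panel binding assay, signal normalized between DMSO as 100% and a positive control compound as 0%.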

Cc1cnc2nc1Nc1cccc(c1)COCc1cc(ccc1OCCN1CCCC1)N2 [Compound 1]
remaining binding at 0.1 µM (RET): 96% | remaining binding at 0.1 µM (MAPKAPK5): 69% | remaining binding at 0.1 µM (VPS34): 27% | remaining binding at 0.1 µM (ROS1): 76% | remaining binding at 0.1 µM (LCK): 72% | remaining binding at 0.1 µM [1]: 100% | remaining binding at 0.1 µM (PIK3CG): 69% | remaining binding at 0.1 µM (PIK3CD): 89% | remaining binding at 0.1 µM (CSNK1E): 70% | remaining binding at 0.1 µM (FLT3(N841I)): 3.5% | remaining binding at 0.1 µM (PLK1): 94% | remaining binding at 0.1 µM (MERTK): 81% | remaining binding at 0.1 µM (PIKFYVE): 100% | remaining binding at 0.1 µM (DAPK3): 94% | remaining binding at 0.1 µM (TRKB): 40% | remaining binding at 0.1 µM (ZAK): 100% | remaining binding at 0.1 µM (RIOK2): 84% | remaining binding at 0.1 µM (TAK1): 67% | remaining binding at 0.1 µM (NEK4): 79% | remaining binding at 0.1 µM (INSRR): 89% | remaining binding at 0.1 µM (MYLK): 93% | remaining binding at 0.1 µM (TNK2): 86% | remaining binding at 0.1 µM (FLT3(K663Q)): 36% | remaining binding at 0.1 µM (p38-delta): 100% | remaining binding at 0.1 µM (KIT(D816V)): 89%
